The assay has as its system Saccharomyces cerevisiae. The assay can be described thus: Antifungal activity against DNA-damage repair genes deficient Saccharomyces cerevisiae RS 321 after 48 hrs by mechanism based bioassay. The class given is functional.
The compound `CC(=O)OCC(COC(C)=O)=C1C=C[C@]2(C)C/C=C(\C)CC[C@@H]3O[C@@]3(C)CC[C@@H]12` gave an IC12 above 3000 µg/mL.
The value for `CC(=O)OC/C1=C\C[C@@]2(C)CC(=O)C(=C(C)C)[C@@H]2CC[C@]2(C)O[C@H]2CC1` was 1800 µg/mL.
The value for `C=C(C)C1C/C=C(\C)CC[C@H](O)[C@@]2(C)CCC=C(CC1)C(=O)O2` (stereo partly specified) was above 3000 µg/mL; that for `CC(=O)O[C@H]1C/C(C)=C/C[C@@]2(C)CC(=O)C(=C(C)C)[C@@H]2CC[C@]2(C)O[C@@H]12` was above 3000 µg/mL; that for `C/C1=C\C[C@@]2(C)C(=O)C=C(C(C)C)[C@@H]2CC[C@]2(C)O[C@H]2CC1` was 2600 µg/mL.
The value for `CC(C)=C1C(=O)C[C@]2(C)C/C=C(\C)CC[C@@H]3O[C@@]3(C)CC[C@@H]12` was 1500 µg/mL.

For the origin of these results see ChEMBL document CHEMBL1159279, “Mechanism-based antitumor screening of Caribbean marine organisms: isolation and structure determination of novel diterpenoids from the gorgonian Eunicea tourneforti” (1995).
